In the supplement of paper PMC10307832:

What was measured:
Test in all cases: relative viability (nuclei count vs DMSO), 5 days (fraction); higher = more cells survive
Calu-6 = tested on: Calu-6
Method in brief: (§1)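 Lung cancer cell lines in 1536-well plates were dosed by pin tool the day after seeding, either with one drug alone or with a fixed anchor-drug dose plus five library-drug doses (not always all listed) in √10 steps. After 5 days, cells were fixed and their nuclei stained in one step (final 0.05% Triton X-100, 1% formaldehyde, 1 ug/ml Hoechst), then counted on 4× images. Relative viability is the nuclei count in treated wells divided by that in vehicle wells. Values are medians of duplicate plates.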

EMC-BAC-2 = tested on: EMC-BAC-2
Method in brief: as §1

IA-LM = tested on: IA-LM
Method in brief: as §1

A549 = tested on: A549
Method in brief: as §1

NCI-H1299 = tested on: NCI-H1299
Method in brief: as §1

EBC-1 = tested on: EBC-1
Method in brief: as §1

NCI-H2228 = tested on: NCI-H2228
Method in brief: as §1

NCI-H2009 = tested on: NCI-H2009
Method in brief: as §1

NCI-H1703 = tested on: NCI-H1703
Method in brief: as §1

ABC-1 = tested on: ABC-1
Method in brief: as §1

Cc1cn(-c2cc(NC(=O)c3ccc(C)c(Nc4nccc(-c5cccnc5)n4)c3)cc(C(F)(F)F)c2)cn1 [Nilotinib] + CC1(C)CCC(c2ccc(Cl)cc2)=C(CN2CCN(c3ccc(C(=O)NS(=O)(=O)c4ccc(N[C@H](CCN5CCOCC5)CSc5ccccc5)c(S(=O)(=O)C(F)(F)F)c4)cc3)CC2)C1 [Navitoclax] (partner 0.5 µM) was tested. Which relative viability (Calu-6; first compound 0.001 µM) did it give?
The relative viability was 0.781.

And the relative viability (Calu-6; first compound 0.003162 µM)?
The relative viability was 0.845.

And the relative viability (Calu-6; first compound 0.01 µM)?
Its relative viability is 1.05.

What about the relative viability (Calu-6; first compound 0.03162 µM) of the same compound?
The relative viability was 0.641.

And the relative viability (Calu-6; first compound 0.1 µM)?
The relative viability was 0.929.

What about the relative viability (EMC-BAC-2; first compound 0.001 µM) of the same compound?
The relative viability was 0.919.

What about the relative viability (EMC-BAC-2; first compound 0.003162 µM) of the same compound?
The relative viability was 1.45.

And the relative viability (EMC-BAC-2; first compound 0.01 µM)?
The relative viability was 1.69.

What about the relative viability (EMC-BAC-2; first compound 0.03162 µM) of the same compound?
Its relative viability is 0.852.

What about the relative viability (EMC-BAC-2; first compound 0.1 µM) of the same compound?
Its relative viability is 1.23.

What about the relative viability (IA-LM; first compound 0.001 µM) of the same compound?
Its relative viability is 0.499.

And the relative viability (IA-LM; first compound 0.003162 µM)?
The relative viability was 0.603.

What about the relative viability (IA-LM; first compound 0.01 µM) of the same compound?
The relative viability was 0.795.

What about the relative viability (IA-LM; first compound 0.03162 µM) of the same compound?
Its relative viability is 0.747.

What about the relative viability (IA-LM; first compound 0.1 µM) of the same compound?
Its relative viability is 0.889.

And the relative viability (A549; first compound 0.001 µM)?
The relative viability was 1.2.

What about the relative viability (A549; first compound 0.003162 µM) of the same compound?
Its relative viability is 1.47.

What about the relative viability (A549; first compound 0.01 µM) of the same compound?
The relative viability was 1.14.

What about the relative viability (A549; first compound 0.03162 µM) of the same compound?
Its relative viability is 0.789.

What about the relative viability (NCI-H1299; first compound 0.003162 µM) of the same compound?
The relative viability was 1.08.

What about the relative viability (NCI-H1299; first compound 0.01 µM) of the same compound?
The relative viability was 1.13.

And the relative viability (NCI-H1299; first compound 0.03162 µM)?
Its relative viability is 1.07.

And the relative viability (NCI-H1299; first compound 0.1 µM)?
Its relative viability is 1.03.

What about the relative viability (EBC-1; first compound 0.001 µM) of the same compound?
Its relative viability is 0.351.

What about the relative viability (EBC-1; first compound 0.003162 µM) of the same compound?
Its relative viability is 0.373.

And the relative viability (EBC-1; first compound 0.01 µM)?
The relative viability was 0.332.

And the relative viability (EBC-1; first compound 0.03162 µM)?
Its relative viability is 0.289.

What about the relative viability (EBC-1; first compound 0.1 µM) of the same compound?
Its relative viability is 0.186.

What about the relative viability (NCI-H2228; first compound 0.001 µM) of the same compound?
Its relative viability is 0.662.

And the relative viability (NCI-H2228; first compound 0.003162 µM)?
The relative viability was 1.1.

And the relative viability (NCI-H2228; first compound 0.01 µM)?
The relative viability was 0.927.

What about the relative viability (NCI-H2228; first compound 0.03162 µM) of the same compound?
The relative viability was 0.826.

What about the relative viability (NCI-H2228; first compound 0.1 µM) of the same compound?
Its relative viability is 0.763.

What about the relative viability (NCI-H2009; first compound 0.001 µM) of the same compound?
Its relative viability is 1.09.

What about the relative viability (NCI-H2009; first compound 0.003162 µM) of the same compound?
The relative viability was 1.19.

What about the relative viability (NCI-H2009; first compound 0.01 µM) of the same compound?
The relative viability was 1.21.

What about the relative viability (NCI-H2009; first compound 0.03162 µM) of the same compound?
Its relative viability is 1.19.

What about the relative viability (NCI-H2009; first compound 0.1 µM) of the same compound?
The relative viability was 1.23.

What about the relative viability (NCI-H1703; first compound 0.001 µM) of the same compound?
Its relative viability is 1.01.

And the relative viability (NCI-H1703; first compound 0.003162 µM)?
Its relative viability is 0.482.

What about the relative viability (NCI-H1703; first compound 0.01 µM) of the same compound?
The relative viability was 0.325.

What about the relative viability (NCI-H1703; first compound 0.03162 µM) of the same compound?
Its relative viability is 0.229.

For Cc1cn(-c2cc(NC(=O)c3ccc(C)c(Nc4nccc(-c5cccnc5)n4)c3)cc(C(F)(F)F)c2)cn1 [Nilotinib] + CC(C)C[C@H](NC(=O)[C@H](Cc1ccccc1)NC(=O)c1cnccn1)B(O)O [Bortezomib] (partner 0.002 µM), which relative viability (Calu-6; first compound 0.001 µM) is on record?
Its relative viability is 0.934.

What about the relative viability (Calu-6; first compound 0.003162 µM) of the same compound?
Its relative viability is 1.02.

And the relative viability (Calu-6; first compound 0.01 µM)?
Its relative viability is 0.929.

And the relative viability (Calu-6; first compound 0.03162 µM)?
The relative viability was 1.02.

And the relative viability (Calu-6; first compound 0.1 µM)?
The relative viability was 1.01.

And the relative viability (EMC-BAC-2; first compound 0.001 µM)?
Its relative viability is 1.03.

What about the relative viability (EMC-BAC-2; first compound 0.003162 µM) of the same compound?
Its relative viability is 1.08.

What about the relative viability (EMC-BAC-2; first compound 0.01 µM) of the same compound?
Its relative viability is 1.09.

And the relative viability (EMC-BAC-2; first compound 0.03162 µM)?
Its relative viability is 0.922.

What about the relative viability (EMC-BAC-2; first compound 0.1 µM) of the same compound?
Its relative viability is 1.05.

What about the relative viability (ABC-1; first compound 0.001 µM) of the same compound?
The relative viability was 0.291.

What about the relative viability (ABC-1; first compound 0.003162 µM) of the same compound?
The relative viability was 0.275.

What about the relative viability (ABC-1; first compound 0.01 µM) of the same compound?
Its relative viability is 0.23.

And the relative viability (ABC-1; first compound 0.03162 µM)?
Its relative viability is 0.28.

And the relative viability (IA-LM; first compound 0.001 µM)?
Its relative viability is 0.616.

What about the relative viability (IA-LM; first compound 0.003162 µM) of the same compound?
The relative viability was 0.698.

And the relative viability (IA-LM; first compound 0.01 µM)?
Its relative viability is 0.685.

What about the relative viability (IA-LM; first compound 0.03162 µM) of the same compound?
Its relative viability is 0.808.

What about the relative viability (IA-LM; first compound 0.1 µM) of the same compound?
The relative viability was 0.714.

And the relative viability (NCI-H1299; first compound 0.003162 µM)?
The relative viability was 1.07.

What about the relative viability (NCI-H1299; first compound 0.01 µM) of the same compound?
Its relative viability is 1.05.

What about the relative viability (NCI-H1299; first compound 0.03162 µM) of the same compound?
The relative viability was 1.01.

What about the relative viability (NCI-H1299; first compound 0.1 µM) of the same compound?
Its relative viability is 0.933.

And the relative viability (EBC-1; first compound 0.001 µM)?
Its relative viability is 0.488.

And the relative viability (EBC-1; first compound 0.003162 µM)?
The relative viability was 0.55.

What about the relative viability (EBC-1; first compound 0.01 µM) of the same compound?
The relative viability was 0.417.

What about the relative viability (EBC-1; first compound 0.03162 µM) of the same compound?
The relative viability was 0.437.

What about the relative viability (EBC-1; first compound 0.1 µM) of the same compound?
The relative viability was 0.241.

And the relative viability (NCI-H2228; first compound 0.001 µM)?
The relative viability was 1.09.

And the relative viability (NCI-H2228; first compound 0.003162 µM)?
The relative viability was 1.23.

And the relative viability (NCI-H2228; first compound 0.01 µM)?
Its relative viability is 1.21.

And the relative viability (NCI-H2228; first compound 0.03162 µM)?
Its relative viability is 0.641.

And the relative viability (NCI-H2228; first compound 0.1 µM)?
Its relative viability is 0.422.

And the relative viability (NCI-H2009; first compound 0.001 µM)?
The relative viability was 0.937.

And the relative viability (NCI-H2009; first compound 0.003162 µM)?
Its relative viability is 1.14.

What about the relative viability (NCI-H2009; first compound 0.01 µM) of the same compound?
The relative viability was 1.16.

What about the relative viability (NCI-H2009; first compound 0.03162 µM) of the same compound?
The relative viability was 1.06.

What about the relative viability (NCI-H2009; first compound 0.1 µM) of the same compound?
Its relative viability is 0.218.

And the relative viability (NCI-H1703; first compound 0.001 µM)?
The relative viability was 0.232.

And the relative viability (NCI-H1703; first compound 0.003162 µM)?
The relative viability was 0.208.

What about the relative viability (NCI-H1703; first compound 0.01 µM) of the same compound?
Its relative viability is 0.148.

And the relative viability (NCI-H1703; first compound 0.03162 µM)?
The relative viability was 0.141.

And the relative viability (NCI-H1703; first compound 0.1 µM)?
Its relative viability is 0.125.
